# Measurements as given in the OligoGym collection.
# After the bases stand the sugars from the 5' end (letter, count) and the backbone: PS all phosphorothioate, else s phosphorothioate and o phosphodiester by linkage. Methylation of C is not given here. e = 2'-O-(2-methoxyethyl) (MOE); k = constrained ethyl (cEt); d = 2'-deoxy (DNA); m = 2'-O-methyl
# Biological target: HSD17B13
# Conditions: ASO, HepaRG
Sequence,target mRNA inhibition (1 µM) [%],also measured
"ATAACCATAGGACATG (sugars k3 d10 k3, PS)",70,target mRNA inhibition (0.02 µM): 37%; target mRNA inhibition (0.078 µM): 38%; target mRNA inhibition (0.313 µM): 58%; target mRNA inhibition (1.25 µM): 84%; target mRNA inhibition (5 µM): 92%
"ATAACTCTATTGATTG (sugars k3 d10 k3, PS)",39,
"ATAAGAGATGAGTAGG (sugars k3 d10 k3, PS)",56,
"ATAATACATTAGCAAG (sugars k3 d10 k3, PS)",7,
"ATAATCTTGTGCTTGG (sugars k3 d10 k3, PS)",36,
"ATAATTACAACCTGGT (sugars k3 d10 k3, PS)",44,
"ATACATACCACTCTTC (sugars k3 d10 k3, PS)",18,
"ATACATTAGCAAGCTA (sugars k3 d1 m1 d8 k3, PS)",36,
"ATACATTAGCAAGCTA (sugars k3 d10 k3, PS)",69,
"ATACGCATGCGCAGTG (sugars k3 d10 k3, PS)",38,
"ATACTGAAATTGATAC (sugars k3 d10 k3, PS)",11,
"ATAGAACTAGAACTCC (sugars k3 d10 k3, PS)",22,
"ATAGAGTCGGTCACCT (sugars kkdddddddddkekek, PS)",56,
"ATAGAGTTGCACCGTT (sugars kkdddddddddkekek, PS)",45,
"ATAGATCCTTTTTTGG (sugars k3 d10 k3, PS)",6,
"ATAGCAAGCCAACAGA (sugars kkdddddddddkekek, PS)",23,
"ATAGCTAAGTATACTT (sugars k3 d10 k3, PS)",0,
"ATAGGAGAGTCTTTCA (sugars k3 d10 k3, PS)",77,
"ATAGGCTAAAATGGTC (sugars k3 d10 k3, PS)",61,
"ATAGTAATCACAAGTA (sugars k3 d10 k3, PS)",56,
"ATAGTCCATGCAAAAG (sugars k3 d10 k3, PS)",43,
"ATAGTTATCTTCTCAC (sugars k3 d10 k3, PS)",48,
"ATATAACATGGCTGGC (sugars k3 d10 k3, PS)",29,
"ATATACATCAACTCCT (sugars k3 d10 k3, PS)",43,
"ATATACTAGGATTAGA (sugars k3 d10 k3, PS)",33,

Sequence,target mRNA inhibition (1 µM) [%],also measured
"ATATACTGTCCCAGCA (sugars k3 d10 k3, PS)",43,
"ATATATACCTGTTGCC (sugars k3 d10 k3, PS)",28,
"ATATCCAGTAGGTGTG (sugars k3 d10 k3, PS)",55,
"ATATGGGATGAGGTAA (sugars k3 d10 k3, PS)",37,
"ATATTCTGTGGCATGG (sugars k3 d9 k3 e1, PS)",58,
"ATATTCTGTGGCATGG (sugars k3 d10 k3, PS)",69,
"ATATTGTTTAGCTGAT (sugars k3 d10 k3, PS)",14,
"ATCAAAATGGTGGCGA (sugars k3 d10 k3, PS)",20,
"ATCAAGACATTCTAGC (sugars kkdddddddddkekek, PS)",30,
"ATCATACCACATACCC (sugars k3 d10 k3, PS)",45,
"ATCATCGATGGAAGAA (sugars k3 d10 k3, PS)",30,
"ATCCAGTAGGTGTGTT (sugars k3 d10 k3, PS)",41,
"ATCCATATTCCCTGAT (sugars k3 d10 k3, PS)",26,
"ATCCTACATGTAAGGT (sugars k3 d10 k3, PS)",24,
"ATCGATGGAAGAAGTG (sugars k3 d10 k3, PS)",39,
"ATCGGCTGGATATACT (sugars k3 d10 k3, PS)",10,
"ATCTAGAATTAAGGGC (sugars k3 d10 k3, PS)",41,
"ATCTAGCAACCTCTAT (sugars k3 d10 k3, PS)",12,
"ATCTATCAGACTTCTT (sugars k3 d1 m1 d8 k3, PS)",34,
"ATCTCTGGGACCAAGG (sugars kkdddddddddkekek, PS)",65,
"ATCTTAAGGATCATTG (sugars k3 d10 k3, PS)",7,
"ATCTUATAAGACTATA (sugars k3 d1 m1 d8 k3, PS)",35,
"ATGACATAGACATGTG (sugars k3 d10 k3, PS)",23,
"ATGATGTTCATGGCTT (sugars k3 d10 k3, PS)",72,
"ATGATTGAATTCACTA (sugars k3 d10 k3, PS)",33,

Sequence,target mRNA inhibition (1 µM) [%],also measured
"ATGCAGCTATAGGTAG (sugars k3 d10 k3, PS)",41,
"ATGCATAAGAGATGAG (sugars k3 d10 k3, PS)",30,
"ATGCCAAGCTTTGTGT (sugars k3 d10 k3, PS)",50,
"ATGCTACTTGAACAGT (sugars k3 d9 k3 e1, PS)",50,
"ATGCTAGTAATTGCAT (sugars k3 d10 k3, PS)",16,
"ATGGAAACATGCTTGG (sugars k3 d10 k3, PS)",48,
"ATGGCTACAGATTGGA (sugars k3 d9 k3 e1, PS)",65,
"ATGGCTTAATTTTCGG (sugars k3 d10 k3, PS)",33,
"ATGTCCAGGTTGAGAT (sugars k3 d10 k3, PS)",55,
"ATGTTCATGGCTTTGC (sugars k3 d10 k3, PS)",73,
"ATGTTTATGTAAGCAC (sugars k3 d10 k3, PS)",70,
"ATTAACTACTTCACTA (sugars k3 d10 k3, PS)",14,
"ATTACAACCTGGTTTC (sugars k3 d10 k3, PS)",50,
"ATTACAGCATCAAGAC (sugars k3 d10 k3, PS)",63,
"ATTATACTTTTCCGTC (sugars k3 d10 k3, PS)",75,target mRNA inhibition (0.02 µM): 12%; target mRNA inhibition (0.078 µM): 0%; target mRNA inhibition (0.313 µM): 47%; target mRNA inhibition (1.25 µM): 75%; target mRNA inhibition (5 µM): 84%
"ATTATTATGTGATTGA (sugars k3 d10 k3, PS)",39,
"ATTCATAAACATAGGC (sugars k3 d10 k3, PS)",36,
"ATTCATAAGTAGTCTG (sugars k3 d10 k3, PS)",35,
"ATTCCATCTATCAGAC (sugars k3 d10 k3, PS)",7,
"ATTCTACACTAATATT (sugars k3 d10 k3, PS)",0,
"ATTCTGTGGCATGGCT (sugars k3 d10 k3, PS)",69,
"ATTGGAATGCTACTTG (sugars k3 d10 k3, PS)",53,
"ATTGTCTAAACATCTC (sugars k3 d10 k3, PS)",84,target mRNA inhibition (0.02 µM): 18%; target mRNA inhibition (0.078 µM): 33%; target mRNA inhibition (0.313 µM): 58%; target mRNA inhibition (1.25 µM): 83%; target mRNA inhibition (5 µM): 94%
"ATTTAGAAACTGCTCC (sugars k3 d10 k3, PS)",21,
"ATTTAGAGAGCGATAG (sugars k3 d10 k3, PS)",14,

Sequence,target mRNA inhibition (1 µM) [%],also measured
"ATTTAGGGCAAACCTT (sugars k3 d10 k3, PS)",35,
"ATTTAGTTGGTAGCTT (sugars k3 d10 k3, PS)",35,
"ATTTGCTGCATTAATG (sugars k3 d10 k3, PS)",20,
"ATTTTCAGATCCCGTT (sugars k3 d10 k3, PS)",67,
"CAAAAGACTTTGAGAC (sugars k3 d9 k3 e1, PS)",13,
"CAACGCAACAGTTTAG (sugars k3 d10 k3, PS)",52,
"CAAGACAGACCAAGTA (sugars k3 d10 k3, PS)",27,
"CAAGAGACACCACCAG (sugars k3 d10 k3, PS)",50,
"CAAGAGGATAGTCCAT (sugars kkdddddddddkekek, PS)",22,
"CAAGAGTTCTTGCAGA (sugars k3 d10 k3, PS)",17,
"CAAGCTACCTCCAAAT (sugars k3 d10 k3, PS)",25,
"CAAGGAAAAGCCTGAC (sugars k3 d10 k3, PS)",59,
"CAATATGGGATGAGGT (sugars k3 d10 k3, PS)",62,
"CAATGAGATTACCCCT (sugars k3 d10 k3, PS)",16,
"CAATTATGAATCTGCA (sugars k3 d10 k3, PS)",25,
"CAATTTACTTTCAGCC (sugars k3 d10 k3, PS)",71,target mRNA inhibition (0.02 µM): 0%; target mRNA inhibition (0.078 µM): 18%; target mRNA inhibition (0.313 µM): 37%; target mRNA inhibition (1.25 µM): 76%; target mRNA inhibition (5 µM): 86%
"CACAAGTAAGGTAAAG (sugars k3 d9 k3 e1, PS)",55,
"CACAAGTAAGGTAAAG (sugars k3 d10 k3, PS)",54,
"CACAGAACCAATATGC (sugars k3 d10 k3, PS)",54,
"CACATATGTGAAGAGC (sugars k3 d9 k3 e1, PS)",74,target mRNA inhibition (0.02 µM): 6%; target mRNA inhibition (0.078 µM): 9%; target mRNA inhibition (0.313 µM): 39%; target mRNA inhibition (1.25 µM): 57%; target mRNA inhibition (5 µM): 78%
"CACAUATGTGAAGAGC (sugars k3 d1 m1 d8 k3, PS)",65,
"CACCACGATTGTTACA (sugars k3 d10 k3, PS)",36,
"CACCGCGCTTATTAAT (sugars k3 d10 k3, PS)",7,
"CACCGTTTTGGGCTAA (sugars k3 d1 m1 d8 k3, PS)",82,target mRNA inhibition (0.02 µM): 12%; target mRNA inhibition (0.078 µM): 32%; target mRNA inhibition (0.313 µM): 54%; target mRNA inhibition (1.25 µM): 71%; target mRNA inhibition (5 µM): 84%
"CACCGTTTTGGGCTAA (sugars k3 d9 k3 e1, PS)",71,
